Laboratory results taken from patent publication US20130101684A1, “Compounds, Compositions, And Methods For Reducing Or Eliminating Bitter Taste” (Chromocell Corporation, priority 2010, published 2013).
Like-named read-outs stand apart in the source and are kept apart here.

Tests used:
Assay type in all cases: in vivo, humans
[1] = test system: bitter taste of potassium lactate foodstuffs; test: Two-alternative forced choice (2AFC) sip and spit test of potassium lactate turkey foodstuff slurries; conditions: turkey slurry with potassium lactate (KLac) 4.5%, 1% EtOH, 2AFC vs KLac slurry standard, dash = at none of the tested conc.; for minimal effective concentration: Homo sapiens
Method: In a blind taste test, panelists received two portions of turkey slurry—one portion being the KCl foodstuff slurry standard and the other being one of the KCl test foodstuff slurries (each prepared as described in Example 5). The panelists tasted each of the portions by sipping and spitting. Each sample was tested in 2-4 discrete taste test experiments. Panelists were asked to rinse with water, eat a cracker, and wait about 10 minutes between samples. In each case, the panelists were asked to compare the bitter taste of the two turkey samples to each other (i.e. panelists were asked to indicate which sample was less bitter). Edible potassium lactate food compositions (“potassium lactate test foodstuff slurries”) were prepared as follows, Dehydrated, salt-free turkey powder was weighed and mixed with various amounts of potassium lactate and/or sodium lactate and then solubilized with boiling water to create a homogenized solubilized turkey slurry. Varying amounts of the test compounds were dissolved in an amount of ethanol or water (depending on the solubility of the compound) to create a 5 mg/mL stock compound solution. An amount of this stock compound solution was then added to the turkey slurry. Enough EtOH is then added to the resulting stock compound/turkey slurry so that the final slurry contains 1% EtOH. The final slurry was again homogenized by boiling and mixing and allowed to cool to yield the final slurry for taste testing. Potassium lactate foodstuff slurry standards were similarly prepared without any test compound. […] The effect of the test compounds on the perception of the bitter taste of potassium lactate foodstuffs in humans was evaluated using the two-alter native-forced-choice “sip and spit” test described in Example 6.

[2] = test system: bitter taste of KCl foodstuff slurries; test: Two-alternative forced choice (2AFC) sip and spit test of KCl turkey foodstuff slurries; conditions: turkey slurry with KCl 1.6%, 1% EtOH, 2AFC vs KCl slurry standard, dash = at none of the tested conc.; for minimal effective concentration: Homo sapiens
Method: Edible KCl food compositions (“KCl test foodstuff slurries”) were prepared as follows. Dehydrated, salt-free turkey powder was weighed and mixed with various amounts of KCl and/or NaCl and then solubilized with boiling water to create a homogenized solubilized turkey slurry. Varying amounts of the test compounds were dissolved in an amount of ethanol or water (depending on the solubility of the compound) to create a 5 mg/mL stock compound solution. An amount of this stock compound solution was then added to the turkey slurry. Enough EtOH is then added to the resulting stock compound/turkey slurry so that the slurry contains 1% EtOH. The slurry was again homogenized by boiling and mixing and allowed to cool to yield the final KCl test foodstuff slurry for taste testing. KCl foodstuff slurry standards were similarly prepared without any test compound. […] The effect of the test compounds on the perception of the bitter taste of KCl foodstuff slurries in humans was evaluated using a two-alternative-forced-choice “sip and spit” test as follows. In a blind taste test, panelists received two portions of turkey slurry—one portion being the KCl foodstuff slurry standard and the other being one of the KCl test foodstuff slurries (each prepared as described in Example 5). The panelists tasted each of the portions by sipping and spitting. Each sample was tested in 2-4 discrete taste test experiments. Panelists were asked to rinse with water, eat a cracker, and wait about 10 minutes between samples. In each case, the panelists were asked to compare the bitter taste of the two turkey samples to each other (i.e. panelists were asked to indicate which sample was less bitter).

[3] = test system: bitter taste of an aqueous solution of KCl; test: Sip and spit taste test of aqueous KCl test solutions, bitterness rated 0-15 against KCl solution standards; conditions: aqueous KCl 4.85 g/L, 1% EtOH, human panel, vs KCl solution standard, dash = at none of the tested conc.
Method: Edible KCl solution compositions (“KCl test solutions”) were prepared by first dissolving varying amounts of the test compounds in an amount of ethanol or water (depending on the solubility of the compound) to create a 5 mg/mL stock compound solution. An amount of this stock compound solution is then added to an aqueous KCl solution. Enough EtOH is then added to the resulting stock compound/KCl solution so that the final KCl test solution contains 1% EtOH. KCl solution standards were similarly prepared by dissolving various amounts of KCl in water and ethanol without adding any test compound. […] The effect of the test compounds on the perception of the bitter taste of an aqueous solution of KCl in humans was evaluated using a “sip and Spit” test as follows. A set of KCl solutions standards was developed and each standard solution was assigned a bitterness taste score of 0-15 (corresponding to aqueous KCl concentrations of 0 mM-120 mM). Panelists were trained to recognize these standards. In addition, before each day of testing, panelists were tested to see if they could determine differences in taste between the standard solutions, if a panelist was unable to recognize a change in KCl concentration, they were excluded from the panel for that day. In a blind taste test, panelists were asked to compare the bitter taste of a small quantity (e.g. 8 ml) of each of the KCl Test Solutions to the taste of a KCl solution standard, without swallowing (see, e.g., Table 1). Specifically, panelists were asked to rate the bitterness of each KCl Test Solution on a scale of 0-15 using the same scale developed for the KCl solution standards. Each sample was tested in 2-4 discrete taste test experiments. Panelists were asked to rinse with water, eat a cracker, and wait approximately 10 minutes between samples.

[4] = test system: bitter taste of an aqueous solution of potassium lactate; test: Sip and spit taste test of aqueous potassium lactate test solutions; conditions: aqueous potassium lactate (KLac) 41 g/L, 1% EtOH, human panel, dash = at none of the tested conc.
Method: A set of KCl solutions standards was developed and each standard solution was assigned a bitterness taste score of 0-15 (corresponding to aqueous KCl concentrations of 0 mM-120 mM). Panelists were trained to recognize these standards. In addition, before each day of testing, panelists were tested to see if they could determine differences in taste between the standard solutions, if a panelist was unable to recognize a change in KCl concentration, they were excluded from the panel for that day. In a blind taste test, panelists were asked to compare the bitter taste of a small quantity (e.g. 8 ml) of each of the KCl Test Solutions to the taste of a KCl solution standard, without swallowing (see, e.g., Table 1). Specifically, panelists were asked to rate the bitterness of each KCl Test Solution on a scale of 0-15 using the same scale developed for the KCl solution standards. Each sample was tested in 2-4 discrete taste test experiments. Panelists were asked to rinse with water, eat a cracker, and wait approximately 10 minutes between samples. Edible potassium lactate solution compositions (“potassium lactate test solutions”) were prepared by first dissolving varying amounts of the test compounds in an amount of ethanol or water (depending on the solubility of the compound) to create a 5 mg/mL stock compound solution. An amount of this stock compound solution is then added to an aqueous potassium lactate solution. Enough EtOH is then added to the resulting stock compound/potassium lactate solution so that the final potassium lactate test solution contains 1% EtOH. Potassium lactate solution standards were similarly prepared by dissolving various amounts of potassium lactate in water and ethanol without adding any test compound. […] The effect of the test compounds on the perception of the bitter taste of an aqueous solution of potassium lactate in humans was evaluated using the “sip and spit” test described in Example 2.

[5] = read-out: Conc. at Which At Least 50% of Panelist Discerned Decrease in Bitter Taste and p ≦ 0.1
[6] = read-out: Conc. at Which At Least 50% of Panelist Discerned Decrease in Bitter Taste
[7] = read-out: Conc. Where Decrease in Bitter Taste Discerned and p ≦ 0.1
[8] = read-out: Conc. Where Decrease in Bitter Taste Was Discerned

Row | SMILES | Conc. Where Decrease in Bitter Taste Discerned and p ≦ 0.1 [3] [ppm] | minimal effective concentration [1, 5] [µg/mL] | minimal effective concentration [2, 5] [µg/mL] | minimal effective concentration [1, 6] [µg/mL] | minimal effective concentration [4, 7] [µg/mL] | minimal effective concentration [3, 7] [µg/mL] | minimal effective concentration [3, 8] [µg/mL] | other results
1 | Cc1ccc(NC(=O)CCOc2ccccc2)cc1Cl [Compound 53] | 25 | – | – | – | – | – | – | Conc. at Which At Least 50% of Panelist Discerned Decrease in Bitter Taste [1]: 30 ppm; Conc. at Which At Least 50% of Panelist Discerned Decrease in Bitter Taste [2]: 30 ppm; Conc. at Which At Least 50% of Panelist Discerned Decrease in Bitter Taste and p ≦ 0.1 [2]: 30 ppm; Conc. Where Decrease in Bitter Taste Was Discerned [3]: 25 ppm; Conc. Where Decrease in Bitter Taste Discerned and p ≦ 0.1 [4]: 1 ppm; Conc. Where Decrease in Bitter Taste Was Discerned [4]: 1 ppm
2 | COC(=O)c1ccccc1NC(=O)c1c(I)cnn1C [Compound 24] | – | 30 | 10 | – | – | – | – | –
3 | CCn1cc(Br)c(C(=O)Nc2ccccc2C(=O)OC)n1 [Compound 25] | – | – | – | 1 | 10 | – | – | minimal effective concentration [4, 8]: 10 µg/mL
4 | CCC(=O)Nc1ccc(OC)c(Cl)c1 [Compound 51] | – | – | – | 10 | – | 15 | 15 | –
5 | CCn1ncc(Br)c1C(=O)Nc1ccccc1C(=O)OC [Compound 23] | 40 | – | – | – | – | – | – | Conc. at Which At Least 50% of Panelist Discerned Decrease in Bitter Taste and p ≦ 0.1 [1]: 1 ppm; Conc. Where Decrease in Bitter Taste Was Discerned [3]: 40 ppm
6 | CCOC(=O)c1ccccc1NC(=O)c1c(Cl)cnn1C [Compound 26] | – | – | 1 | 30 | 1 | – | – | –
7 | CCCC(=O)Nc1ccc(OC)c(Cl)c1 [Compound 49] | – | 30 | 1 | 30 | 30 | 30 | 30 | minimal effective concentration [2, 6]: 1 µg/mL; minimal effective concentration [4, 8]: 30 µg/mL
8 | COC(=O)c1cccc2c1NC(c1ccc(Cl)cc1Cl)C1CC=CC21 (stereo not drawn) [Compound 38] | – | – | – | 30 | – | 1 | 1 | –
9 | Cc1ccc(NC(=O)C2COc3ccccc3O2)cc1Cl (stereo not drawn) [Compound 56] | 1 | – | – | – | – | – | – | Conc. at Which At Least 50% of Panelist Discerned Decrease in Bitter Taste [1]: 1 ppm; Conc. at Which At Least 50% of Panelist Discerned Decrease in Bitter Taste and p ≦ 0.1 [1]: 1 ppm; Conc. Where Decrease in Bitter Taste Discerned and p ≦ 0.1 [4]: 10 ppm
10 | O=C(O)c1cccc2c1NC(c1cccc(Br)c1)C1CC=CC21 (stereo not drawn) [Compound 37] | – | 10 | – | – | – | 1 | 1 | –
